Among the data in ChEMBL document CHEMBL2331106, “Discovery of 5-phenoxy-1,3-dimethyl-1H-pyrazole-4-carboxamides as potent agonists of TGR5 via sequential combinatorial libraries” (Bioorg Med Chem Lett, 2013) are EC50, microsomal CLint and logD values, retold here.

SMILES strings stand for the structures.

Series [1] is filed under the species Homo sapiens. The series can be described thus: Ex vivo activation of TGR5 in human PBMC assessed as elevation of cAMP level by cAMP assay.
Series [2] in a line: Intrinsic clearance in human liver microsomes. Conditions: read-out: CLH. Type of series: ADME, Microsome. Background: Liver microsomes are a subcellular fraction often used to study metabolism.
Series [3] can be described thus: Distribution coefficient, log D of the compound by shake flask method. Type of series: physicochemical. Conditions: octanol/water.
In series [4] the target is T1, G-protein coupled bile acid receptor 1 (Homo sapiens, UniProt Q8TDU6).
T1 sequence (Q8TDU6 whole entry): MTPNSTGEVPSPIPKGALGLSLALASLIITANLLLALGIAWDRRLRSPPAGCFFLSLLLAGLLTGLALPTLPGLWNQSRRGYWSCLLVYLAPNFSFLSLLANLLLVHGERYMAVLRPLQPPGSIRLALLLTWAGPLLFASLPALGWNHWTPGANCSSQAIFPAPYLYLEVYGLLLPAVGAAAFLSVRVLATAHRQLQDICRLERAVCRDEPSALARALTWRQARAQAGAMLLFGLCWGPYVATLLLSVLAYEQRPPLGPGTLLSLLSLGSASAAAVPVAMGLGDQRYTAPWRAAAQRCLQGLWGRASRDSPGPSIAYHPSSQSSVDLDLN
Briefly: Agonist activity at human TGR5 receptor in CHO cells assessed as elevation of cAMP level by uninduced cAMP detection method in absence of doxycycline. Type of series: functional, cell-based. (Cyclic AMP is a second messenger, typically raised through Gs and lowered through Gi signalling.)

Series [5] has as its target T1, G-protein coupled bile acid receptor 1. The series can be described thus: Agonist activity at doxycycline-promoter regulated overexpressed human TGR5 receptor in CHO cells assessed as elevation of cAMP level by induced-cAMP assay. Format: functional, cell-based.

As a reminder, the EC50 is the concentration needed to bring the measured effect to its halfway point. On to `Cc1nn(C)c(Oc2cccc(Cl)c2Cl)c1C(=O)N1CCCC[C@@H]1c1cccnc1`, for which the EC50 in series [1] was 379 nM.

In general, logD refers to the decadic logarithm of the distribution of all forms, ionised or not, between an organic phase and buffer at a given pH. Take `Cc1ccc(N(C)C(=O)c2c(-c3ccccc3Cl)noc2C)cc1Cl`: the microsomal CLint in series [2] was over 320 µL/min/mg. The molecule also displayed a logD in series [3] of 3.6.

As to `Cc1nn(C)c(Oc2ccccc2)c1C(=O)N1CCCCC1c1cccnc1` (centres undefined), in series [3], the logD came to 2.4. The EC50 in series [4] is over 10000 nM; in series [5] it was 920 nM.

As for `Cc1nn(C)c(Oc2cccnc2)c1C(=O)N1CCCCC1c1cccnc1` (centres undefined), in series [3], the log distribution coefficient (logD) came out at 1.4. Moreover, the EC50 in series [4] and in series [5] was over 10000 nM in each case.
